Target: wild-type un-phosphorylated FGFR3 protein (Homo sapiens, UniProt P22607)
Assay: FGFR Enzymatic Assay (FRET peptide phosphorylation)
Procedure: The inhibitor potency of the exemplified compounds was determined in an enzyme discontinuous assay that measures peptide phosphorylation using FRET measurements to detect product formation. Inhibitors were serially diluted in DMSO and a volume of 0.2 μL was transferred to the wells of a 384-well plate. A 5 μL/well volume of enzyme isoforms of FGFR (-1, -2, -3 wild-type and mutant isoforms, -4) including phosphorylated and un-phosphorylated proteins diluted in assay buffer (50 mM HEPES, 10 mM MgCl2, 1 mM EGTA, 0.01% Tween-20, 5 mM DTT, pH 7.5) was added to the plate and pre-incubated with inhibitor for 5 to 15 minutes at ambient temperature. Appropriate controls (enzyme blank and enzyme with no inhibitor) were included on the plate. The reaction was initiated by the addition of a 5 μL/well volume containing both biotinylated [sequence] peptide substrate (SEQ ID NO: 1) and ATP in assay buffer. The 10 μL/well reaction concentration of the peptide substrate was 500 nM whereas the ATP concentration was maintained near or below the ATP Km. The ATP Km values were pre-determined in a separate series of experiments. The reaction plate was incubated at 25° C. for 1 hr and the reactions were ended with the addition of 5 μL/well of quench solution (50 mM Tris, 150 mM NaCl, 0.5 mg/mL BSA, pH 7.8; 45 mM EDTA, 600 nM staurosporin, with Perkin Elmer Lance Reagents at 3.75 nM Eu-antibody PY20 and 180 nM APC-Streptavidin). The plate was allowed to equilibrate for ˜10 minutes at ambient temperature before scanning on a PheraStar plate reader (BMG Labtech) instrument.
Either GraphPad prism or XLfit was used to analyze the data. The IC50 values were derived by fitting the data to a four parameter logistic equation producing a sigmoidal dose-response curve with a variable Hill coefficient. Prism equation: Y=Bottom+(Top−Bottom)/(1+10^((Log IC50−X)*Hill slope)); XLfit equation: Y=(A+((B−A)/(1+((X/C)^D)))) where X is the logarithm of inhibitor concentration and Y is the response.

Sequence of wild-type un-phosphorylated FGFR3 protein (P22607 23-806): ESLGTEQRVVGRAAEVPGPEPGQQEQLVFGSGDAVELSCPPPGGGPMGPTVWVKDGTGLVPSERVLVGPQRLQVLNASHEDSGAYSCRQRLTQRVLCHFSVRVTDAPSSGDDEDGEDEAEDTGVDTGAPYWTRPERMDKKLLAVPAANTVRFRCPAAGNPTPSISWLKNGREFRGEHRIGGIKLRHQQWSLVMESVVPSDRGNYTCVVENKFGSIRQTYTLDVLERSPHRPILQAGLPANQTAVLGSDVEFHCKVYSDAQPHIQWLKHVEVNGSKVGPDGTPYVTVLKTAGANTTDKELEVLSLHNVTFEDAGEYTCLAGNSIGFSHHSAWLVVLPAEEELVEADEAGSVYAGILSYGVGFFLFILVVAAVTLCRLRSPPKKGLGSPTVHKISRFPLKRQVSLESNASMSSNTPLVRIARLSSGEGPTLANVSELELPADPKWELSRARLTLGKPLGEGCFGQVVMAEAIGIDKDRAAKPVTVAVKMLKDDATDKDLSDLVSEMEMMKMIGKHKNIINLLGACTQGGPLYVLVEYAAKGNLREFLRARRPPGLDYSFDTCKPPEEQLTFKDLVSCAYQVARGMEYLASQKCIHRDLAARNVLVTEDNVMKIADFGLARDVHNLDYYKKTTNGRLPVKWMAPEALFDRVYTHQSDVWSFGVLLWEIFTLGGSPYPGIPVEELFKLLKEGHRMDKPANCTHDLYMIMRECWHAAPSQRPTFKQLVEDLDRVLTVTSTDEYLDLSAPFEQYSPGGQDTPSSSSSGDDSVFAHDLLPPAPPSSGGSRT

Row | IC50 [nM] | Structure (SMILES)
1 | < 0.1 | CC(C)(O)Cn1cc(-c2cnc3ccn4c(C(N)=O)c(-c5c(Cl)cccc5Cl)nc4c3c2)cn1 [Example 2, 2-(2,6-Dichlorophenyl)-9-(1-(2-hydroxy-2-methylpropyl)-1H-pyrazol-4-yl)imidazo[2,1-f][1,6]naphthyridine-3-carboxamide]
2 | < 0.1 | N#Cc1cc(Cn2cc(-c3cnc4ccn5c(C(N)=O)c(-c6c(Cl)cccc6Cl)nc5c4c3)cn2)ccn1 [Example 10, 9-(1-((2-Cyanopyridin-4-yl)methyl)-1H-pyrazol-4-yl)-2-(2,6-dichlorophenyl)imidazo[2,1-f][1,6]naphthyridine-3-carboxamide]
3 | < 0.1 | NC(=O)c1c(-c2c(Cl)cccc2Cl)nc2c3cc(-c4cnn(Cc5ccncn5)c4)cnc3ccn12 [Example 11, 2-(2,6-Dichlorophenyl)-9-(1-(pyrimidin-4-ylmethyl)-1H-pyrazol-4-yl)imidazo[2,1-f][1,6]naphthyridine-3-carboxamide]
4 | 0.1 to 1 | CC(c1ccnc(C#N)c1)n1cc(-c2cnc3ccn4c(C(N)=O)c(-c5c(Cl)cccc5Cl)nc4c3c2)cn1 (centres unmarked) [Example 12, 9-(1-(1-(2-Cyanopyridin-4-yl)ethyl)-1H-pyrazol-4-yl)-2-(2,6-dichlorophenyl)imidazo[2,1-f][1,6]naphthyridine-3-carboxamide]
5 | 0.1 to 1 | NC(=O)c1c(-c2c(Cl)cccc2Cl)nc2c3cc(-c4ccc(C5CCS(=O)(=O)CC5)cc4)cnc3ccn12 [Example 13, 2-(2,6-Dichlorophenyl)-9-(4-(1,1-dioxidotetrahydro-2H-thiopyran-4-yl)phenyl)imidazo[2,1-f][1,6]naphthyridine-3-carboxamide]
6 | < 0.1 | NC(=O)c1c(-c2c(Cl)cccc2Cl)nc2c3cc(-c4cnn(Cc5ncccn5)c4)cnc3ccn12 [Example 15, 2-(2,6-Dichlorophenyl)-9-(1-(pyrimidin-2-ylmethyl)-1H-pyrazol-4-yl)imidazo[2,1-f][1,6]naphthyridine-3-carboxamide]
7 | 0.1 to 1 | NC(=O)c1c(-c2c(Cl)cccc2Cl)nc2c3cc(-c4ccc(CN5CCN(C(=O)CO)CC5)cc4)cnc3ccn12 [Example 20, 2-(2,6-Dichlorophenyl)-9-(4-((4-(2-hydroxyacetyl)piperazin-1-yl)methyl)phenyl)imidazo[2,1-f][1,6]naphthyridine-3-carboxamide]
8 | < 0.1 | CN1CCN(c2ccc(-c3cnc4ccn5c(C(N)=O)c(-c6c(Cl)cccc6Cl)nc5c4c3)cc2)CC1 [Example 21, 2-(2,6-Dichlorophenyl)-9-(4-(4-methylpiperazin-1-yl)phenyl)imidazo[2,1-f][1,6]naphthyridine-3-carboxamide]
9 | < 0.1 | NC(=O)c1c(-c2c(Cl)cccc2Cl)nc2c3cc(-c4ccc(C(=O)N5C[C@@H]6C[C@H]5CO6)cc4)cnc3ccn12 [Example 22, 9-(4-((1S,4S)-2-Oxa-5-azabicyclo[2.2.1]heptane-5-carbonyl)phenyl)-2-(2,6-dichlorophenyl)imidazo[2,1-f][1,6]naphthyridine-3-carboxamide]

Further lines, the compound ahead of its results:

Row | Structure (SMILES) | IC50 [nM]
10 | NC(=O)c1c(-c2c(Cl)cccc2Cl)nc2c3cc(-c4cnn(CCO)c4)cnc3ccn12 [Example 1, 2-(2,6-Dichlorophenyl)-9-(1-(2-hydroxyethyl)-1H-pyrazol-4-yl)imidazo[2,1-f][1,6]naphthyridine-3-carboxamide] | < 0.1
11 | CC(C)(C(N)=O)n1cc(-c2cnc3ccn4c(C(N)=O)c(-c5c(Cl)cccc5Cl)nc4c3c2)cn1 [Example 3, 9-(1-(1-Amino-2-methyl-1-oxopropan-2-yl)-1H-pyrazol-4-yl)-2-(2,6-dichlorophenyl)imidazo[2,1-f][1,6]naphthyridine-3-carboxamide] | 0.1 to 1
12 | NC(=O)c1c(-c2c(Cl)cccc2Cl)nc2c3cc(-c4ccc(C(=O)N5CCOCC5)cc4)cnc3ccn12 [Example 4, 2-(2,6-Dichlorophenyl)-9-(4-(morpholine-4-carbonyl)phenyl)imidazo[2,1-f][1,6]naphthyridine-3-carboxamide] | < 0.1
13 | NC(=O)c1c(-c2c(Cl)cccc2Cl)nc2c3cc(-c4cn[nH]c4)cnc3ccn12 [Example 5, 2-(2,6-Dichlorophenyl)-9-(1H-pyrazol-4-yl)imidazo[2,1-f][1,6]naphthyridine-3-carboxamide] | < 0.1
14 | CC(CC#N)n1cc(-c2cnc3ccn4c(C(N)=O)c(-c5c(Cl)cccc5Cl)nc4c3c2)cn1 (centres unmarked) [Example 6, 9-(1-(1-Cyanopropan-2-yl)-1H-pyrazol-4-yl)-2-(2,6-dichlorophenyl)imidazo[2,1-f][1,6]naphthyridine-3-carboxamide] | < 0.1
15 | CCC(O)Cn1cc(-c2cnc3ccn4c(C(N)=O)c(-c5c(Cl)cccc5Cl)nc4c3c2)cn1 (centres unmarked) [Example 7, 2-(2,6-Dichlorophenyl)-9-(1-(2-hydroxybutyl)-1H-pyrazol-4-yl)imidazo[2,1-f][1,6]naphthyridine-3-carboxamide] | 0.1 to 1
16 | NC(=O)c1c(-c2c(Cl)cccc2Cl)nc2c3cc(-c4cnn(CC5(F)CCOCC5)c4)cnc3ccn12 [Example 8, 2-(2,6-Dichlorophenyl)-9-(1-((4-fluorotetrahydro-2H-pyran-4-yl)methyl)-1H-pyrazol-4-yl)imidazo[2,1-f][1,6]naphthyridine-3-carboxamide] | < 0.1
17 | N#Cc1cncc(Cn2cc(-c3cnc4ccn5c(C(N)=O)c(-c6c(Cl)cccc6Cl)nc5c4c3)cn2)c1 [Example 9, 9-(1-((5-Cyanopyridin-3-yl)methyl)-1H-pyrazol-4-yl)-2-(2,6-dichlorophenyl)imidazo[2,1-f][1,6]naphthyridine-3-carboxamide] | < 0.1
18 | NC(=O)c1c(-c2c(Cl)cccc2Cl)nc2c3cc(-c4ccc(N5CCS(=O)(=O)CC5)cc4)cnc3ccn12 [Example 14, 2-(2,6-Dichlorophenyl)-9-(4-(1,1-dioxidothiomorpholino)phenyl)imidazo[2,1-f][1,6]naphthyridine-3-carboxamide] | < 0.1
19 | N#Cc1cccc(Cn2cc(-c3cnc4ccn5c(C(N)=O)c(-c6c(Cl)cccc6Cl)nc5c4c3)cn2)n1 [Example 16, 9-(1-((6-Cyanopyridin-2-yl)methyl)-1H-pyrazol-4-yl)-2-(2,6-dichlorophenyl)imidazo[2,1-f][1,6]naphthyridine-3-carboxamide] | < 0.1
20 | CC(=O)N1CCN(c2ccc(-c3cnc4ccn5c(C(N)=O)c(-c6c(Cl)cccc6Cl)nc5c4c3)cc2)CC1 [Example 17, 9-(4-(4-Acetylpiperazin-1-yl)phenyl)-2-(2,6-dichlorophenyl)imidazo[2,1-f][1,6]naphthyridine-3-carboxamide] | < 0.1
21 | NC(=O)c1c(-c2c(Cl)cccc2Cl)nc2c3cc(-c4ccc(N5CCN(C(=O)CO)CC5)cc4)cnc3ccn12 [Example 18, 2-(2,6-Dichlorophenyl)-9-(4-(4-(2-hydroxyacetyl)piperazin-1-yl)phenyl)imidazo[2,1-f][1,6]naphthyridine-3-carboxamide] | < 0.1
22 | CC(=O)N1CCN(Cc2ccc(-c3cnc4ccn5c(C(N)=O)c(-c6c(Cl)cccc6Cl)nc5c4c3)cc2)CC1 [Example 19, 9-(4-((4-Acetylpiperazin-1-yl)methyl)phenyl)-2-(2,6-dichlorophenyl)imidazo[2,1-f][1,6]naphthyridine-3-carboxamide] | < 0.1
23 | N#CCn1cc(-c2cnc3ccn4c(C(N)=O)c(-c5c(Cl)cccc5Cl)nc4c3c2)cn1 [Example 23, 9-(1-(Cyanomethyl)-1H-pyrazol-4-yl)-2-(2,6-dichlorophenyl)imidazo[2,1-f][1,6]naphthyridine-3-carboxamide] | < 0.1
